Measurements: patent US11123426B2, “Use of vista agonists and antagonists to suppress or enhance humoral immunity” (THE TRUSTEES OF DARTMOUTH COLLEGE, priority 2014, dated 2021)

Legend:
Assay type in all cases: cell-based, mice
Ly6C+CD11b+ MDSCs [1] = assay: 3H-thymidine proliferation assay: MDSC suppression of B-cell responsiveness, w.t. B6 responder spleen cells stimulated with α-CD40 and IL-4; details: FIG. 2A; MDSCs pretreated one hour with 0.8 mM L-NMMA or 80 ug/ml α-VISTA (13F3); R:S 3:1; three days
Method: (§1) 3H-Thymidine incorporation proliferation assays. For responder cells, 5×10^5 non-infected spleen cells, which were either non-fractionated or CD19+ purified, were plated into 96 well flat bottom plates along with 1.6×105 (unless otherwise indicated) CD11b+Ly6G+, or CD11b+Ly6C+, enriched suppressor cells obtained from spleens of 5-w.p.i. LP-BM5 mice of the indicated w.t. B6 or B6 knock-out strains. […] For the percent suppression calculation, first, the percent residual responsiveness (R) was calculated as follows: R=(cpm of co-cultured responder cells and experimental suppressor cells)[…](cpm of co-cultured responder cells and control, non-infected suppressor cells)×100%. Standard deviations of the mean were determined for triplicate wells, and were statistically compared by the two-tailed, two sample equal variance, Student T test. […]

Ly6C+CD11b+ MDSCs [2] = assay: 3H-thymidine proliferation assay: MDSC suppression of T-cell responsiveness, w.t. B6 responder spleen cells stimulated with Con A; details: FIG. 2B, MDSCs pretreated with 0.8 mM L-NMMA or 80 ug/ml α-VISTA (13F3), R:S 3:1, three days
Method: as §1

Ly6C+CD11b+ MDSCs [3] = assay: 3H-thymidine proliferation assay: MDSC suppression of B-cell responsiveness with VISTA−/− responder spleen cells (α-CD40 and IL-4); details: FIG. 5A
Method: as §1
This example relates to the experiments in FIG. 5. […] The % suppression was calculated for both (A) and (B) by cpm responder 3H thymidine incorporation. […]

[4] = test system: monocytic MDSCs (Ly6C+CD11b+); assay: CFSE dilution proliferation assay of CD19+ B cells with monocytic MDSCs; details: FIG. 4, w.t. MDSCs, CFSE labeled VISTA−/− responders
Method: CFSE dilution proliferation assays. Naïve responder splenocytes were labeled with 5.iM CFSE (Cell trace, CFSE proliferation Kit, Molecular Probes, Eugene, Oreg.) in PBS/0.5% BSA for 10 minutes at 37° C. followed by the addition of cold 10% FBS in RPM1 for 5 minutes on ice. After three cold 10% FCS/RPMI washes, cell cultures were set up in the same manner as that for the 3H-thymidine incorporation proliferation assays described above. On culture day 4, wells were stained with monoclonal antibody (mAb): ct-CD19-PerCP (Biolegend, San Diego, Calif.) and were analyzed on a FACSCalibur flow cytometer (BD bioscience, San Jose, Calif.).
This example relates to the experiments in FIG. 4. In these experiments purified monocytic MDSCs (Ly6C+CD11b+) from 5 week LP-BM5 infected mice of the indicated strains, show differing patterns of suppression of naïve VISTA−/− spleen cell proliferation as assessed by flow cytometry. CFSE labeled VISTA−/− responder cells were cultured for […] in the presence (+) or absence (−) of ct-CD40+ IL-4, and with or without monocytic MDSCs (a) (−); (b) (+) (grey shaded curves); (c) (+), W.t. MDSCs (in black open curves); (d) (+), DNMMA treated W.t. […] MDSCs; Cells from all cultures were stained at the termination of a four day incubation, with ct-CD19 fluorochrome conjugated mAb and CFSE dilution was also assessed by FACS. […]

With `CNC(=N)NCCC[C@H](N)C(=O)O` [LNMMA, NG-monomethyl-L-Arginine] the “blocking of MDSC suppression of B-cell responsiveness” value (Ly6C+CD11b+ MDSCs [1]) was roughly 50%, the “blocking of MDSC suppression of T-cell responsiveness” value (Ly6C+CD11b+ MDSCs [2]) was “essentially completely dependent on iNOS/NO” and the “extent of blocking of VISTA−/− MDSC suppression of B-cell responsiveness” value (Ly6C+CD11b+ MDSCs [3]; MDSC of VISTA−/− origin) was roughly 100%. The “blocking of w.t. MDSC suppression of B-cell responsiveness” value (Ly6C+CD11b+ MDSCs [3]; w.t. MDSC) was “partially blocked” and the “restoration of B-cell proliferation curve towards control B cells stimulated in absence of MDSCs (CFSE)” value [4] was “partially restored”.
